From patent publication US6645977B1 (priority 1997, dated 2003)
Where “and” joins values, the source holds several entries; their conditions need not be identical. Equal values may be shown once. Where a name gives a salt, the structure may show the parent alone. Read-outs that look alike come from different tables or passages of the source.

Columns and labels:
[1] = target: nAChRs comprised of α4 and β2 subunits (labelled by 3H-cytisine) (Rattus norvegicus, UniProt P09483+P12390); assay: In vitro inhibition of 3H-cytisine binding
Procedure: In vitro inhibition of ^3H-cytisine binding
The predominant subtype with high affinity for nicotine is comprised of α4 and β2 subunits. nAChRs of the latter type can selectively be labelled by the nicotine modulator ^3H-cytisine.
Tissue Preparation: Preparations are performed at 0-4° C. unless otherwise indicated. […] The homogenate is centrifuged at 27,000×g for 10 min. The supernatant is discarded and the pellet is resuspended in fresh buffer and centrifuged a second time. The final pellet is resuspended in fresh buffer (35 ml per g of original tissue) and used for binding assays.
Assay: Aliquots of 500 μl homogenate are added to 25 μl of test solution and 25 μl of ^3H-cytisine (1 nM, final concentration), mixed and incubated for 90 min at 2° C. Non-specific binding is determined using (−)-nicotine (100 μM, final concentration). After incubation the samples are added 5 ml of ice-cold buffer and poured directly onto Whatman GF/C glass fibre filters under suction and immediately washed with 2×5 ml ice-cold buffer. The amount of radioactivity on the filters is determined by conventional liquid scintillation counting. Specific binding is total binding minus non-specific binding.

[2] = target: nAChR labelled by 3H-α-bungarotoxin (α7 subunits) (Rattus norvegicus, UniProt Q05941); assay: biochemical; type: binding
[3] = relative to morphine; cited from earlier work
[4] = 3H-cytisine IC50, rat cerebral cortex homogenate, 1 nM 3H-cytisine, 90 min at 2° C.
[5] = read-out: 3H-α-bungarotoxin IC50
[6] = rat cerebral cortex homogenate, 1 nM 3H-cytisine, 90 min at 2° C., read-out: 3H-cytisine IC50

nAChR labelled by 3H-α-bungarotoxin (α7 subunits), sequence (Q05941 23-502): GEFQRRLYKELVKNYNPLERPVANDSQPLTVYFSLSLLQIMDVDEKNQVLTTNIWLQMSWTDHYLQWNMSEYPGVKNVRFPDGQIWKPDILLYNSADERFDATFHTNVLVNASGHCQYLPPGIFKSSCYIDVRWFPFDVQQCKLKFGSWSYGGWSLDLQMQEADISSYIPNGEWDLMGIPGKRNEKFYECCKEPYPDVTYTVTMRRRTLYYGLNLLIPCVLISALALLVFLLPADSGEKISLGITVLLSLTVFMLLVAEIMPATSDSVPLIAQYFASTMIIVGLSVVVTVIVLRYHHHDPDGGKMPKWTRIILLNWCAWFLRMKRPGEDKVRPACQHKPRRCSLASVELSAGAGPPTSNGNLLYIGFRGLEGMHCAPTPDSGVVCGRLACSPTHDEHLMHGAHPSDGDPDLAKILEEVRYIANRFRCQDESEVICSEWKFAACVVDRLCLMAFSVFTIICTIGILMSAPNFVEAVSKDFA
nAChRs comprised of α4 and β2 subunits (labelled by 3H-cytisine), sequence (P09483 31-630): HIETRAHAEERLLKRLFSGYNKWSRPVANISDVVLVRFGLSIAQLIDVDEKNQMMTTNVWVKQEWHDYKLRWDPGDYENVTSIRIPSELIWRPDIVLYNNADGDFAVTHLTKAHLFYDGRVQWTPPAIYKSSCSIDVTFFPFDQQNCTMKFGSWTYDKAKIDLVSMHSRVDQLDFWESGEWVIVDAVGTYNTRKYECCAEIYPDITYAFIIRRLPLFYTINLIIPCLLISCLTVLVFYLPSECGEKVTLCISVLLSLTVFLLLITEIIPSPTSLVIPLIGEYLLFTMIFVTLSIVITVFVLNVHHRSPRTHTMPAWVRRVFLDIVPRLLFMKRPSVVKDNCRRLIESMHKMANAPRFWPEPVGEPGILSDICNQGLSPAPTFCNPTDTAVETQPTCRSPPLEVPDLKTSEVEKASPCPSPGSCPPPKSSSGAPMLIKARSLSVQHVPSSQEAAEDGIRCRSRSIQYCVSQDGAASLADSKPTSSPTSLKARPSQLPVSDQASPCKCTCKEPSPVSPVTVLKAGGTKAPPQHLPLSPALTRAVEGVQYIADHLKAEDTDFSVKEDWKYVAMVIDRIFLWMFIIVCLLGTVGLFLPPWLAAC
nAChRs comprised of α4 and β2 subunits (labelled by 3H-cytisine), sequence (P12390 25-500): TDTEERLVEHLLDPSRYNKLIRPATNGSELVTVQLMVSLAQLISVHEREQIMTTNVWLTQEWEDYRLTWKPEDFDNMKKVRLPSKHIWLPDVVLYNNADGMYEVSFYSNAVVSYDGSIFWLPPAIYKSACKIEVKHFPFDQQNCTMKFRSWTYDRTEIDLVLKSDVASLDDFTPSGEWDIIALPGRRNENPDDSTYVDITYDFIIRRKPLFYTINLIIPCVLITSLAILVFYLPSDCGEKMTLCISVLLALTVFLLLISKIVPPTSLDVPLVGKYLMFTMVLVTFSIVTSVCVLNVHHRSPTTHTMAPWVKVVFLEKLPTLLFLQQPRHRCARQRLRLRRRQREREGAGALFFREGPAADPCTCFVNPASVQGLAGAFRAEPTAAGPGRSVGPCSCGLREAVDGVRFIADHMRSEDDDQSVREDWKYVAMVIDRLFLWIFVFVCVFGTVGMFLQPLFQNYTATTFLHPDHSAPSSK

Row | SMILES | melting point | IC50 [2, 5] [nM] | other results
1 | CN1C2C=C(c3ccc[se]3)CC1CC2 (racemic) | 176.8 to 178.3 °C |  | 
2 | CN1C2C=C(c3cc4ccccc4o3)CC1CC2.O=C(O)/C=C/C(=O)O (racemic) | 188.3 to 190.9 °C and 188.5 to 191.2 °C |  | 
3 | CN1C2C=C(c3cccs3)CC1CC2.O=C(O)/C=C/C(=O)O (racemic) | 141.5 to 143.5 °C |  | 
4 | CC(=O)C1=CC2CCC(C1)N2C.O=C(O)/C=C/C(=O)O (racemic) | 148.5 to 150 °C |  | 
5 | CN1C2C=C(c3csc4ccccc34)CC1CC2.O=C(O)/C=C/C(=O)O (racemic) | 146.6 to 149.5 °C |  | 
6 | CN1C2C=C(c3nc4ccccc4s3)CC1CC2.O=C(O)/C=C/C(=O)O (racemic) | 195 to 196.8 °C |  | 
7 | CN1C2C=C(c3sccc3-c3ccoc3)CC1CC2.O=C(O)/C=C/C(=O)O (racemic) | 187 to 189 °C |  | 
8 | CN1C2C=C(c3nccs3)CC1CC2.O=C(O)/C=C/C(=O)O (racemic) | 196.3 to 198.5 °C |  | 
9 | CN1C2C=C(c3ccsc3)CC1CC2.Cl (racemic) | 117 to 118.5 °C |  | 
10 | C1=C(c2cc3ccccc3o2)CC2CCC1N2 (racemic) (as salt: fumaric acid salt) [Compound 1e, (±)-3-(2-Benzofuryl)-8-H-8-azabicyclo[3.2.1]oct-2-ene Fumaric Acid Salt] | 201 to 204 °C |  | 
11 | CN1C2C=C(c3oc4ccccc4c3Br)CC1CC2 (racemic) (as salt: fumaric acid salt) [Compound 2f, (±)-3-[2-(3-Bromobenzofuryl)]-8-methyl-8-azabicyclo[3.2.1]oct-2-ene Fumaric Acid Salt] | 161.4 to 163.3 °C |  | 
12 | CN1C2C=C(c3ccc(Cl)nc3)CC1CC2 (racemic) (as salt: fumaric acid salt) [Compound 5b, (±)-8-Methyl-3-[3-(6-chloro)pyridyl]-8-azabicyclo[3.2.1]oct-2-ene Fumaric Acid Salt] | 140 to 142 °C |  | 
13 | C1=C(c2cccnc2)CC2CCC1N2Cc1ccccc1.O=C(O)/C=C/C(=O)O (racemic) [Compound 1a, (±)-8-Benzyl-3-(3-pyridyl)-8-azabicyclo[3.2.1]oct-2-ene Fumaric Acid Salt] | 142 to 146 °C | 500 | IC50 [1, 4]: 23 nM
14 | CN1C2C=C(c3cc4ccccc4o3)CC1CC2 (racemic) [Compound 1d, (±)-3-(2-Benzofuryl)-8-methyl-8-azabicyclo[3.2.1]oct-2-ene Fumaric Acid Salt] |  | 170 | IC50 [1, 4]: 120000 nM
15 | C1=C(c2cc3ccccc3o2)CC2CCC1N2 (racemic) [Compound 1e, (±)-3-(2-Benzofuryl)-8-H-8-azabicyclo[3.2.1]oct-2-ene Fumaric Acid Salt] |  |  | IC50 [1, 6]: > 10000 nM; IC50 [2]: 800 nM
16 | CN1C2C=C(c3sccc3Br)CC1CC2 (racemic) [Compound 1f, (±)-3-[2-(3-bromothienyl)]-8-methyl-8-azabicyclo[3.2.1]oct-2-ene Fumaric Acid Salt] |  | 82 | IC50 [1, 6]: 2200 nM
17 | CN1C2C=C(c3cccnc3)CC1CC2 (racemic) [Compound 2a, (±)-8-Methyl-3-(3-pyridyl)-8-azabicyclo[3.2.1]oct-2-ene Fumaric Acid Salt] |  |  | IC50 [1]: 22 nM; IC50 [2]: 550 nM
18 | CN1C2C=C(c3cc4ccccc4s3)CC1CC2 (racemic) [Compound 2c, (±)-3-(2-Benzothienyl)-8-methyl-8-azabicyclo[3.2.1]oct-2ene] | 81 to 83.6 °C | 100 | IC50 [1, 4]: 63800 nM
19 | CN1C2C=C(c3cc4ccccc4s3)CC1CC2.Cl (racemic) [Compound 2d, (±)-3-(2-Benzothienyl)-8-methyl-8-azabicyclo[3.2.1]oct-2-ene Hydrochloride] | > 250 °C | 67 | IC50 [1, 4]: 110000 nM
20 | CN1C2C=C(c3oc4ccccc4c3Br)CC1CC2 (racemic) [Compound 2f, (±)-3-[2-(3-Bromobenzofuryl)]-8-methyl-8-azabicyclo[3.2.1]oct-2-ene Fumaric Acid Salt] |  | 1300 | IC50 [1, 6]: 30000 nM
21 | CN1C2C=C(c3cnc4ccccc4c3)CC1CC2.O=C(O)/C=C/C(=O)O (racemic) [Compound 3a, (±)-8-Methyl-3-(3-quinolinyl)-8-azabicyclo[3.2.1]oct-2-ene Fumaric Acid Salt] | 140.8 to 143.8 °C | 1440 | IC50 [1, 4]: 1300 nM
22 | CC(=O)Nc1cccc(C2=CC3CCC(C2)N3C)c1.O=C(O)/C=C/C(=O)O (racemic) [Compound 3c, (±)-3-(3-Acetamidophenyl)-8-methyl-8-azabicyclo[3.2.1]oct-2-ene Fumaric Acid Salt] | 195.3 to 196.9 °C |  | IC50 [1, 6]: 17000 nM; IC50 [2]: 640 nM
23 | CCN1C2C=C(c3cc4ccccc4o3)CC1CC2.O=C(O)/C=C/C(=O)O (racemic) [Compound 3e, (±)-3-(2-Benzofuryl)-8ethyl-8-azabicyclo[3.2.1]oct-2-ene Fumaric Acid Salt] | 197 to 203 °C | 510 | IC50 [1, 4]: > 10000 nM
24 | CN1C2C=C(c3coc4ccccc34)CC1CC2.O=C(O)/C=C/C(=O)O (racemic) [Compound 4a, (±)-3-(3-Benzofuryl)-8-methyl-8-azabicyclo[3.2.1]oct-2-ene Fumaric Acid Salt] | 140.9 to 142.8 °C | 3500 | IC50 [1, 4]: 2700 nM
25 | CN1C2C=C(c3cccc(N)c3)CC1CC2.O=C(O)/C=C/C(=O)O (racemic) [Compound 4c, (±)-3-(3-Aminophenyl) 8-methyl-8-azabicyclo[3.2.1]oct-2-ene Fumaric Acid Salt] | 195.3 to 196.9 °C | 440 | IC50 [1]: 30 nM
26 | CN1C2C=C(c3ccc(Cl)nc3)CC1CC2 (racemic) [Compound 5b, (±)-8-Methyl-3-[3-(6-chloro)pyridyl]-8-azabicyclo[3.2.1]oct-2-ene Fumaric Acid Salt] |  |  | IC50 [1, 6]: 20 nM; IC50 [2]: 1900 nM
27 | Clc1ccc(C2CC3CCC2N3)cn1 (stereo not shown) [Epibatidine] |  |  | approximate analgesic potency [3]: ~500 times that of morphine
